According to patent publication US4868193A, “Styryl tetrazoles and anti-allergic use thereof” (Rorer Pharmaceutical Corporation, priority 1986, dated 1989):
Counter-ions that a name gives are not always drawn. Like-named read-outs stand apart in the source and are kept apart here.

Legend:
[1] = test system: LTC4-induced contraction of guinea pig peripheral lung strips; assay: In vitro assay to identify leukotriene antagonist compounds (guinea pig lung strips), vs LTC4; type: cell-based; conditions: Cavia porcellus, 50% reduction of muscle response, read-out: In Vitro I50
Description: (§1) In Vitro Assay to Identify Leukotriene Antagonist Compounds […] Peripheral strips of guinea pig lungs are prepared and hung in tissue baths according to the procedure described by Drazen et al. Male guinea pigs (Charles River, 250-400 g) are sacrificed by cervical dislocation and their lungs rapidly removed. The individual lobes are dissected free and rinsed in Assay Buffer which is continuously aerated with 95% oxygen-5% carbon dioxide. After the lobes are extensively rinsed, a strip of lung tissue, approximately 2 mm thick and 5-8 cm long, is cut off the sharpest and most peripheral portion of each lobe. The peripheral edge is cut almost completely around the outside of the lobe so that a U-shaped strip is obtained. These strips are rinsed in Assay Buffer and then connected with surgical silk thread to the support rods from the tissue baths. The rods are adjusted in the baths and the strips connected to the pressure transducers. The tissue baths are aerated with 95% oxygen-5% carbon dioxide and maintained at 37°. The tension on these strips is adjusted to 500 mg with "re-zeros" the pen deflection on the previously calibrated polygraph. Tissues are initially washed with fresh buffer every 5-10 minutes for about 30 minutes. Thereafter, tissues were washed with fresh assay buffer at least every 20 minutes. Normalizing Muscle Contractions and Testing of Compounds 1. After the tissues have been repeatedly washed and allowed to equilibrate in the tissue bath, they are challenged with 1μM histamine. [Usually 10 μl of a 1 mM stock solution are added to the baths.] After maximum concentrations have been obtained, then tissues are washed and allowed to relax back to baseline tension. This histamine challenge procedure is repeated at least 1 or 2 more times to obtain a repeatable control response. […] Leukotriene (usually 0.4 units/ml) is added after the desired preincubation time and the muscle response is recorded. […] From this curve the concentration responding to the 50% reduction of the muscle concentration is calculated as the ^I 50 value. […]

[2] = test system: LTD4 (leukotriene D4)-induced contraction of guinea pig peripheral lung strips; assay: In vitro assay to identify leukotriene antagonist compounds (guinea pig lung strips), vs LTD4; type: cell-based; conditions: 50% reduction of muscle response, read-out: In Vitro I50
Description: as §1

[3] = test system: LTD4 (leukotriene D4)-induced cutaneous wheal formation; assay: Leukotriene D4-induced wheal formation in the guinea pig; set-up: species or system guinea pig (male Hartley); conditions: Cavia porcellus, po, 1 h, p.o., 0.1 μg LTD4 intradermally, given one hour before Evans blue dye, read-out: In Vivo LTD4 Wheal, ED50
Description: Leukotriene D4 -Induced Wheal formation in the Guinea Pig Leukotriene D4 (LTD4) increases vascular permeability in guinea pig skin. LTD4 antagonists are tested for oral activity in a model of LTD4 -induced cutaneous wheal formation in the guinea pig. Male Hartley guinea pigs are given either vehicle (polyethylene glycol 400) or test compound by gauge one hour before intravenous injection of 1% Evans blue dye. Immediately after dye injection, 0.1 μg of LTD4 (in a volume of 0.1 ml) is injected intradermally at two separate dorsal sites. Thirty minutes later, the animals are sacrificed by carbon dioxide asphyxiation, the dorsal skins reflected, and glued wheal areas measured. Mean values±standard error for wheal areas in vehicle- and drug-treated groups are determined. Inhibition of wheal formation is calculated by comparison of drug-treated and control groups.

IC50 [1] [µM] | IC50 ([2]; Cavia porcellus) [µM] | IC50 ([2]; hydrochloride) [µM] | Structure (SMILES) | ED50 [3] [mg/kg]
1.2 | 0.65 |  | N#CC=Cc1cccc(OCc2ccc3ccccc3n2)c1 [Example 1B, 3-(Quinolin-2-yl-methoxy)-cinnamylnitrile] | 
0.15 | 0.06 | 0.08 | C(=Cc1nnn[nH]1)c1cccc(OCc2ccc3ccccc3n2)c1.Cl [Example 1C, 5-[3-(Quinolin-2-yl-methoxy)styryl]-tetrazole hydrochloride] | 22
0.5 |  |  | C(=Cc1nnn[nH]1)c1ccc(OCc2ccc3ccccc3n2)cc1 [Example 2C, 5-[4-(Quinolin-2-yl-methoxy)styryl]-tetrazole hydrochloride] | 
